Values quoted from earlier work as cited in US20250049023A1, “FUNGICIDAL COMPOSITIONS” (SYNGENTA CROP PROTECTION AG, priority 2021, published 2025).

Test system: Mycosphaerella graminicola (Septoria tritici)
Settings: as disclosed in prior filings

## COc1ccnc(C(=O)N[C@@H](C)C(=O)O[C@@H](C)C(c2ccc(F)cc2)c2ccc(F)cc2)c1OC(C)=O [Florylpicoxamid, (1S)-2,2-bis(4-fluorophenyl)-1-methylethyl N-{[3-(acetyloxy)-4-methoxy-2-pyridyl]carbonyl}-L-alaninate]
  control of wheat leaf blotch disease (in words): particularly effective
